System: SK-BR-3
Assay: Antiproliferative activity against human SKBR3 cells after 48 to 72 hrs by MTT assay
Type: functional, cell-based
Settings: not given

Row | Structure (SMILES) | IC50
1 | CCCCCCN(c1ccc(NC(=O)C2CCCCC2)cc1OCc1cc(C)ccc1C)S(C)(=O)=O | 81.7 µM
2 | CCCCCC(=O)NCCCCCCN(c1ccc(NC(=O)C2CCCCC2)cc1OCc1cc(C)ccc1C)S(C)(=O)=O | 6 µM
3 | Cc1ccc(C)c(COc2cc(NC(=O)C3CCCCC3)ccc2N(CCCCCCNC(=O)CCCC[C@H]2SC[C@H]3NC(=O)N[C@H]32)S(C)(=O)=O)c1 | 2.21 µM
4 | Cc1ccc(C)c(COc2cc(NC(=O)C3CCCCC3)ccc2N(CCCCCCNC(=O)c2ccc3ccccc3c2)S(C)(=O)=O)c1 | 45.3 µM
5 | COCCOCCN(c1ccc(NC(=O)C2CCCCC2)cc1OCc1cc(C)ccc1C)S(C)(=O)=O | 13 µM
6 | Cc1ccc(C)c(COc2cc(NC(=O)C3CCCCC3)ccc2NS(C)(=O)=O)c1 | 83.7 µM

System: SK-BR-3
Assay: Antiproliferative activity against human SKBR3 cells at 100 uM after 48 to 72 hrs by MTT assay
Type: cell-based
Settings: sk-br-3, 100 µM

Row | Structure (SMILES) | Activity
7 | O=C(O)CCCC[C@@H]1SC[C@@H]2NC(=O)N[C@@H]21 [BIOTIN] | Non-toxic

Source: ChEMBL document CHEMBL1821646, “Design and synthesis of a biotinylated probe of COX-2 inhibitor nimesulide analog JCC76” (Bioorg Med Chem Lett, 2011)
